The values below are quoted from earlier work in patent publication US20070021495A1, “SULFONAMIDES AS SELECTIVE ESTROGEN RECEPTOR” (priority 2005, published 2007).

The structures appear in SMILES notation.

One data set concerns Candida albicans. Particulars: cited from earlier work.
The subject of the next data set is ovariectomized mice. Particulars: dose 50 micrograms; cited from earlier work.

For the compound `COc1ccc(NS(=O)(=O)c2ccc(OC)cc2)cc1` [compound II, p-methoxybenzenesulfon-p-anisidide], the “Activity against Candida albicans” value with Candida albicans is on record as “some activity”. Also, in the data set with ovariectomized mice, the “percentage of animals which responded” value is 100%.
